Measurements taken from patent US5100892A, “Dihydropyridine vasodilator agents” (Glaxo Inc., priority 1990, dated 1992).

System: Spontaneously Hypertensive Rats
Test: Spontaneously Hypertensive Rat (SHR) Test, hemodynamics in anesthetized rats
Type: in vivo, Spontaneously Hypertensive Rat (Sprague Dawley)
Settings: for HR (Heart Rate: change from basal) / LVPT (time for Left Ventricular Pressure to decay from peak to 50%, % of basal) / MBP (Mean Blood Pressure: change from basal) / RT64 (change in time from maximal relaxation, % of basal) / dP/dT40 (change in rate of systolic pressure increase of left ventricle measured at 40 mm Hg from basal): anesthetized SHR
Protocol: Male Retired Breeder Spontaneously Hypertensive Rats (SHR) (Sprague Dawley, 250-350 g) are anesthetized by i.p. injection of Sodium Thiopental 50 mg/kg. A catheter is inserted into the duodenum for maintenance of anesthesia throughout the experiment. A tube is inserted through a lateral incision in the trachea. The left carotid artery is exposed and a Millar SPR-249 (2-F) pressure probe is inserted and passed into the left ventricle of the heart. Left ventricular pressure (LVP), the first differential of the LVP (+dP/dT,-dP/dT), the left ventricular end diastolic pressure (LVEDP) and the differential of the increase in LVP measured at a constant pressure of 40 mm Hg (dP/dT40) are measured via this probe. In addition to these parameters, two indices of myocardial diastolic relaxation are measured namely the RT64 (time in msec from the peak derivative of maximal relaxation to 64% of that value) and the Left Ventricular Pressure Time Constant (LVPT), the half-time for decay of the LVP from peak pressure to 50% of that pressure. […] Results also are shown graphically on a Gould RS3800 Recorder. A saline filled cannula is passed into the femoral vein for infusion of drugs and one is placed into the femoral artery for measurement and recording or arterial blood pressure (Statham P23Db pressure transducer). From this signal the diastolic, systolic and mean blood pressure are derived as well as the heart rate. After surgery, the preparation is left to stabilize for 45 minutes after which compounds, dissolved in polyethylene glycol, are slowly infused with a Sage Instruments Infusion pump into the femoral vein. […] After completion of the last infusion, hemodynamic parameters are observed over 30 min and then a standard dose of 3.0 mg/kg milrinone is infused (over 5 min) to test preparation responsiveness. In the SHR, the following results were obtained for several known cardiovascular agents and for the compound of Examples 10,11,15 and 16.

| Structure (SMILES) | HR (Heart Rate: change from basal) (0.3 mg/kg i.v.) | LVPT (time for Left Ventricular Pressure to decay from peak to 50%, % of basal) (0.3 mg/kg i.v.) | MBP (Mean Blood Pressure: change from basal) (0.3 mg/kg i.v.) | RT64 (change in time from maximal relaxation, % of basal) (0.3 mg/kg i.v.) | dP/dT40 (change in rate of systolic pressure increase of left ventricle measured at 40 mm Hg from basal) (0.3 mg/kg i.v.) | HR (Heart Rate: change from basal) (1.0 mg/kg i.v.) | LVPT (time for Left Ventricular Pressure to decay from peak to 50%, % of basal) (1.0 mg/kg i.v.) | MBP (Mean Blood Pressure: change from basal) (1.0 mg/kg i.v.) | RT64 (change in time from maximal relaxation, % of basal) (1.0 mg/kg i.v.) | dP/dT40 (change in rate of systolic pressure increase of left ventricle measured at 40 mm Hg from basal) (1.0 mg/kg i.v.) | HR (Heart Rate: change from basal) (3.0 mg/kg i.v.) | LVPT (time for Left Ventricular Pressure to decay from peak to 50%, % of basal) (3.0 mg/kg i.v.) | MBP (Mean Blood Pressure: change from basal) (3.0 mg/kg i.v.) | RT64 (change in time from maximal relaxation, % of basal) (3.0 mg/kg i.v.) | dP/dT40 (change in rate of systolic pressure increase of left ventricle measured at 40 mm Hg from basal) (3.0 mg/kg i.v.) | HR (Heart Rate: change from basal) (10 mg/kg i.v.) | LVPT (time for Left Ventricular Pressure to decay from peak to 50%, % of basal) (10 mg/kg i.v.) | MBP (Mean Blood Pressure: change from basal) (10 mg/kg i.v.) | RT64 (change in time from maximal relaxation, % of basal) (10 mg/kg i.v.) | dP/dT40 (change in rate of systolic pressure increase of left ventricle measured at 40 mm Hg from basal) (10 mg/kg i.v.) | further results |
| --- | --- | --- | --- | --- | --- | --- | --- | --- | --- | --- | --- | --- | --- | --- | --- | --- | --- | --- | --- | --- | --- |
| COC(=O)C1=C(C)NC(C)=C(C(=O)OCCNC(=O)COc2ccc(-c3cc(C#N)c(=O)[nH]c3C)cc2)C1c1cccc(Cl)c1Cl (racemic) [Example 11, (±)-2,6-dimethyl-3-carbomethoxy-4-(2,3-dichlorophenvl)-5-{4-[1,2-dihydro-2-oxo-3-cyano-6-methyl-5(1H)-pyridyl]phenoxymethylenecarboxamindoethyloxycarbonyl}-1,4-dihydropyridine] | 2.8% | -14.4% | -12.5% | -15.7% | 4.5% | 1.7% | -22.4% | -16.3% | -22.8% | 6.9% | -0.5% | -34% | -36.7% | -26% | 3.5% | 0% | -31% | -45.8% | -34.5% | -9% | hemodynamic profile compared with Example 10 (in words) (i.v., SHR, compared with Example 10): A similar profile was observed |
| COC(=O)C1=C(C)NC(C)=C(C(=O)OCCNC(=O)COc2ccc(-c3cc(C#N)c(=O)[nH]c3C)cc2)C1c1cccc([N+](=O)[O-])c1 (single isomer, unassigned; (+)) [Example 15, (+)-2,6-dimethyl-3-carbomethoxy-4-(3-nitrophenyl)-5-{4-[1,2-dihydro-2-oxo-3-cyano-b 6-methyl-5(1H)-pyridyl]phenoxymethylenecarboxamidoethyloxycarbonyl}-1,4-dihydropyridine] |  |  |  |  |  |  |  |  |  |  |  |  |  |  |  | -1.9% | -4.2% | -39.8% | 1.6% | 11.9% | effect on blood pressure (in words) (10 mg/kg i.v., SHR): hypotension; effect on dP/dT40 (in words) (10 mg/kg i.v., SHR): slight increase in dP/dT40; effect on heart rate (in words) (10 mg/kg i.v., SHR): no change in heart rate; effect on myocardial relaxation time constants (in words) (10 mg/kg i.v., SHR): little effect |
| COC(=O)C1=C(C)NC(C)=C(C(=O)OCCNC(=O)COc2ccc(-c3cc(C#N)c(=O)[nH]c3C)cc2)C1c1cccc([N+](=O)[O-])c1 (single isomer, unassigned; (-)) [Example 16, (-)-2,6-dimethyl-3-carbomethoxy-4-(3-nitrophenyl)-5-{4-[1,2-dihydro-2-oxo-3-cyano-6-methyl-5(1H)-pyridyl]phenoxymethylenecarboxamidoethyloxycarbonyl}-1,4-dihydropyridine] |  |  |  |  |  |  |  |  |  |  |  |  |  |  |  | -1.5% | -18% | -34.9% | -17.6% | 5% | effect on blood pressure (in words) (10 mg/kg i.v., SHR): hypotension; effect on dP/dT40 (in words) (10 mg/kg i.v., SHR): slight increase in dP/dT40; effect on heart rate (in words) (10 mg/kg i.v., SHR): no change in heart rate; effect on myocardial relaxation time constants (in words) (10 mg/kg i.v., SHR): marked reduction in myocardial relaxation time constants |
| NNc1nncc2ccccc12 [Hydralazine] | 0% | 4.1% | -1.2% | 2% | 0% | 8% | 2.3% | -17.8% | 0% | 3.4% | 8.8% | -7.8% | -37.5% | -12.5% | 0% | 17% | -21.9% | -48% | -22.6% | 6.9% | effect on blood pressure (in words) (0.3 to 10 mg/kg i.v., SHR): hypotension; effect on dP/dT40 (in words) (0.3 to 10 mg/kg i.v., SHR): little change in dP/dT40; effect on heart rate (in words) (0.3 to 10 mg/kg i.v., SHR): reflex tachycardia; effect on myocardial relaxation time constants (in words) (0.3 to 10 mg/kg i.v., SHR): reduction in myocardial relaxation time constants only at 3 and 10 mg/kg |
| Cc1[nH]c(=O)c(C#N)cc1-c1ccncc1 [Milrinone] | 10% | -15.5% | -10% | -13.7% | 27% | 12.4% | -22% | -29% | -20.5% | 28.3% | 16.2% | -30% | -29% | -36% | 34% |  |  |  |  |  | effect on blood pressure (in words) (0.3 to 3 mg/kg i.v., SHR): hypotension; effect on dP/dT40 (in words) (0.3 to 3 mg/kg i.v., SHR): an increase in dP/dT40; effect on heart rate (in words) (0.3 to 3 mg/kg i.v., SHR): tachycardia; effect on myocardial relaxation time constants (in words) (0.3 to 3 mg/kg i.v., SHR): a decrease in myocardial relaxation time constants (increased rate of relaxation) |
